Reference: ChEMBL document CHEMBL3407448 (J Med Chem, 2015)

Key:
[1] = Tmax in male Wistar rat at 7 mg/kg, po; type: ADME, organism-based; set-up: dose 7 mg/kg, route oral; details: in vivo
[2] = Oral bioavailability in male Wistar rat at 7 mg/kg; type: ADME, organism-based; details: in vivo
[3] = system: Rattus norvegicus; assay: (§1) Volume of distribution at steady state in male Wistar rat at 1 mg/kg, iv; type: ADME, organism-based; set-up: dose 1 mg/kg, route intravenous; details: in vivo
[4] = AUC (infinity) in male Wistar rat at 7 mg/kg, po; type: ADME, organism-based; set-up: time infinity, dose 7 mg/kg, route oral; details: plasma
[5] = Cmax in male Wistar rat at 7 mg/kg, po; type: ADME, organism-based; set-up: dose 7 mg/kg, route oral; details: in vivo
[6] = Tmax in fed cynomolgus monkey at 03 mg/kg, po; type: ADME, organism-based, Macaca fascicularis; set-up: dose 3 mg/kg, route oral; details: in vivo, 3 mg/kg
[7] = Oral bioavailability in fasted cynomolgus monkey at 0.3 mg/kg; type: ADME, organism-based, Macaca fascicularis; details: in vivo
[8] = Tmax in fasted cynomolgus monkey at 03 mg/kg, po; type: ADME, organism-based, Macaca fascicularis; set-up: dose 3 mg/kg, route oral; details: in vivo, 3 mg/kg
[9] = Cmax in fed cynomolgus monkey at 0.3 mg/kg, po; type: ADME, organism-based, Macaca fascicularis; set-up: dose 0.3 mg/kg, route oral; details: in vivo
[10] = Ratio of drug level in brain to plasma in male Wistar rat; type: ADME; details: read-out: BPR
[11] = Volume of distribution at steady state cynomolgus monkey at 1 mg/kg, iv; type: ADME, organism-based, Macaca fascicularis; set-up: dose 1 mg/kg, route intravenous; details: in vivo, read-out: Vdss
[12] = AUC (infinity) in fed cynomolgus monkey at 0.3 mg/kg, po; type: ADME, organism-based, Macaca fascicularis; set-up: time infinity, dose 0.3 mg/kg, route oral; details: plasma
[13] = Oral bioavailability in fed cynomolgus monkey at 0.3 mg/kg; type: ADME, organism-based, Macaca fascicularis; details: in vivo
[14] = system: Plasma; assay: Plasma concentration in male Sprague-Dawley rat at 0.3 mg/ml, po; type: ADME
[15] = as §1; type: ADME, organism-based; set-up: dose 1 mg/kg, route intravenous; details: male, Wistar, in vivo, read-out: Vdss
[16] = system: Plasma; assay: Plasma concentration in male Sprague-Dawley rat at 0.03 mg/ml, po; type: ADME
[17] = Oral bioavailability in male Wistar rat at 10 mg/kg; type: ADME, organism-based; details: in vivo
[18] = Cmax in male Wistar rat at 10 mg/kg, po; type: ADME, organism-based; set-up: dose 10 mg/kg, route oral; details: in vivo
[19] = Ratio of drug level in CSF to plasma in male Wistar rat; type: ADME
[20] = Tmax in male Wistar rat at 10 mg/kg, po; type: ADME, organism-based; set-up: dose 10 mg/kg, route oral; details: in vivo
[21] = AUC (infinity) in fasted cynomolgus monkey at 0.3 mg/kg, po; type: ADME, organism-based, Macaca fascicularis; set-up: time infinity, dose 0.3 mg/kg, route oral; details: plasma
[22] = AUC (infinity) in male Wistar rat at 10 mg/kg, po; type: ADME, organism-based; set-up: time infinity, dose 10 mg/kg, route oral; details: plasma
[23] = Cmax in fasted cynomolgus monkey at 0.3 mg/kg, po; type: ADME, organism-based, Macaca fascicularis; set-up: dose 0.3 mg/kg, route oral; details: in vivo
[24] = Volume of distribution at steady state in male Wistar rat at 2 mg/kg, iv; type: ADME, organism-based; set-up: dose 2 mg/kg, route intravenous; details: in vivo, read-out: Vdss

| Structure (SMILES) | Tmax [1] [h] | bioavailability [2] [%] | AUC(0-inf) [4] [ng·h/mL] | Cmax [5] [ng/mL] | Kp [10] | bioavailability [17] [%] | Cmax [18] [ng/mL] | Kp [19] | Tmax [20] [h] | AUC(0-inf) [22] [ng·h/mL] | Vd [24] [L/kg] | also measured |
| --- | --- | --- | --- | --- | --- | --- | --- | --- | --- | --- | --- | --- |
| C(#Cc1ncn2c1COc1ccccc1-2)c1ccccc1 | 2.3 | 18 | 661 | 158 |  |  |  |  |  |  |  | Vdss [3]: 2.9 L/kg |
| Cc1nc(C#Cc2ccnc(Cl)c2)c(C)n1-c1ccc(F)cc1 [BASIMGLURANT] |  |  |  |  | 2.9 | 91 | 1580 | 0.06 | 6.2 | 25600 |  | Tmax [6]: 2 h; bioavailability [7]: 100%; Tmax [8]: 1 h; Cmax [9]: 36.1 ng/mL; Vd [11]: 5.1 L/kg; AUC(0-inf) [12]: 298 ng·h/mL; bioavailability [13]: 54%; Cp [14]: 37 ng/mL; Vd [15]: 4 L/kg; Cp [16]: 5 ng/mL; AUC(0-inf) [21]: 852 ng·h/mL; Cmax [23]: 76.5 ng/mL |
| Cc1nc(C#Cc2ccnc(Cl)c2)c(C)n1-c1ccc(OC(F)(F)F)cc1 |  |  |  |  | 2.6 | 98 | 619 |  | 5.5 | 78900 | 11 |  |
| Cc1cc(C#Cc2cn(-c3ccc(F)cc3)c(C)n2)ccn1 | 1.1 | 84 | 10500 | 1660 | 0.4 |  |  | 0.02 |  |  | 0.8 |  |
